Activity calls are given as the source filed them. No cut-off for these calls is given here.
Legend:
[1] = target: T1, Amine oxidase [flavin-containing] A (Homo sapiens, UniProt P21397); experiment: Inhibition of human recombinant MAO-A expressed in baculovirus-infected BTI cells using kynuramine as substrate incubated for 30 mins by fluorescence based analysis
T1 sequence (P21397 whole entry): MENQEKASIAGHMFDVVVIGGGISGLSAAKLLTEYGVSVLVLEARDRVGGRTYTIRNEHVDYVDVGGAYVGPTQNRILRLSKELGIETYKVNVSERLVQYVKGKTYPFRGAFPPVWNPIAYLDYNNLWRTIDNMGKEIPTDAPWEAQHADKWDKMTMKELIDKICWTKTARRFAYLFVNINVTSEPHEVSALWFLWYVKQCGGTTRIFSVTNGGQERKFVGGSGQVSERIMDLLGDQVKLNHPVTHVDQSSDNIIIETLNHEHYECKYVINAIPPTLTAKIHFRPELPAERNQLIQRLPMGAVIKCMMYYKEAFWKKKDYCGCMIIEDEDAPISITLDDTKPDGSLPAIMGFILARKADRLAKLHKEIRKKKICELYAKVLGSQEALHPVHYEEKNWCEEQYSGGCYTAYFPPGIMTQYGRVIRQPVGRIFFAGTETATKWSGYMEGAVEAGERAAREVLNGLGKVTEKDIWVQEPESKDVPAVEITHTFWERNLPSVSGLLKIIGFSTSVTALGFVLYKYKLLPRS

BV-2 = experiment: Cytotoxicity against mouse BV-2 cells assessed as reduction in cell viability at 10 uM by CCK8 assay; type: toxicity, cell-based; details: bv-2, 10 µM
PC-12 = experiment: Neuroprotective activity against Amyloid beta(25 to 35)-induced cell injury in rat PC12 cells assessed as cell viability at 20 uM pretreated for 2 hrs followed by incubation with Abeta(25 to 35) for 24 hrs by CCK-8 assay (reference value: 41 to 58.6%); type: functional; details: time 26 hrs, read-out: Activity
[2] = Metal chelating activity assessed as compound-Cu2+ complex formation by measuring maximum absorption wavelength shift from 316 to 446 nm at 37.5 uM incubated for 30 mins in presence of CuCl2 by UV-Vis spectrometry
[3] = Metal chelating activity assessed as compound-Al3+ complex formation by measuring maximum absorption wavelength shift from 316 to 434 nm at 37.5 uM incubated for 30 mins in presence of AlCl3 by UV-Vis spectrometry
[4] = Metal chelating activity assessed as compound-Zn2+ complex formation at 37.5 uM incubated for 30 mins in presence of ZnCl2 by UV-Vis spectrometry
Acetylcholinesterase [5] = target: T2, Acetylcholinesterase (Electrophorus electricus, UniProt O42275); experiment: Inhibition of electric eel AChE using acetylthiocholine chloride as substrate by Ellman's method
[6] = target: Cholinesterase (Equus caballus) (UniProt P81908); experiment: Reversible inhibition of equine serum BuChE assessed as enzyme activity using butyrylthiocholine chloride as substrate measured after dilution to 1XIC50 by Ellman's method; type: cell-free; set-up: scale not given: the % may be the effect or the level left
[7] = Permeability of the compound at 100 ug/ml incubated for 18 hrs by PAMPA assay; type: ADME; details: dose 100 µg/ml, read-out: permeability
Cholinesterase [8] = target: T3, Cholinesterase (Equus caballus, UniProt P81908); experiment: Drug metabolism assessed as equine serum BuChE-mediated 3-(4-fluorophenyl)-1-(2-hydroxyphenyl)prop-2-en-1-one formation treated at 150 mmol/L with 0.25U BuChE and measured after 6 secs by HPLC analysis; type: ADME, cell-free; details: horse, 6 s, time 6 sec
Acetylcholinesterase [9] = target: T2, Acetylcholinesterase; experiment: Drug metabolism assessed as electric eel AChE-mediated 3-(4-fluorophenyl)-1-(2-hydroxyphenyl)prop-2-en-1-one formation treated at 150 mmol/L with 0.001U AChE and measured after 9 mins by HPLC analysis; type: ADME; details: 0.15 h
Acetylcholinesterase [10] = target: T2, Acetylcholinesterase; experiment: Drug metabolism assessed as electric eel AChE-mediated 3-(4-fluorophenyl)-1-(2-hydroxyphenyl)prop-2-en-1-one formation treated at 150 mmol/L with 0.5U AChE and measured after 9 mins by HPLC analysis; type: ADME; details: 0.15 h
Cholinesterase [11] = target: T3, Cholinesterase; experiment: Drug metabolism assessed as equine serum BuChE-mediated 3-(4-fluorophenyl)-1-(2-hydroxyphenyl)prop-2-en-1-one formation treated at 150 mmol/L with 0.001U BuChE and measured after 9 mins by HPLC analysis; type: ADME, cell-free; details: horse, 0.15 h
Acetylcholinesterase [12] = target: T2, Acetylcholinesterase; experiment: Drug metabolism assessed as electric eel AChE-mediated 3-(4-fluorophenyl)-1-(2-hydroxyphenyl)prop-2-en-1-one formation treated with 0.25U AChE for 9 mins by HPLC analysis; type: ADME; details: 0.15 h
Acetylcholinesterase [13] = target: T2, Acetylcholinesterase; experiment: Drug metabolism assessed as electric eel AChE-mediated 3-(4-fluorophenyl)-1-(2-hydroxyphenyl)prop-2-en-1-one formation by measuring decarbamoylation rate constant treated with 0.25U AChE for 9 mins by HPLC analysis; type: ADME; details: 0.15 h
Cholinesterase [14] = target: T3, Cholinesterase; experiment: Drug metabolism assessed as equine serum BuChE-mediated 3-(4-fluorophenyl)-1-(2-hydroxyphenyl)prop-2-en-1-one formation by measuring decarbamoylation rate constant with 0.25U BuChE for 9 mins by HPLC analysis; type: ADME, cell-free; details: horse, 0.15 h
[15] = Stability of the compound in artificial intestinal juice assessed as parent compound remaining at 1 mg/ml measured after 8 hrs by UPLC-MS/MS analysis; type: ADME; details: read-out: Stability
[16] = Acute toxicity in zebra fish assessed as ratio of pericardial edema to body weight at 0.15625 to 2.5 ug/ml and measured at 120 hpf by microscopic analysis; set-up: species or system Danio rerio; details: zebrafish; dose 0.15625-2.5 µg/ml
Danio rerio [17] = organism: Danio rerio; experiment: Antialzheimer activity against AlCl3-induced Alzheimer's disease zebra fish model assessed as total distance moved at 0.0195 ug/ml treated for 24 hrs and measured after 24 hrs under light environment (reference value: 230 cm); type: functional; details: dose 0.0195 µg/ml; time 48 hrs
Danio rerio [18] = organism: Danio rerio; experiment: Antialzheimer activity against AlCl3-induced Alzheimer's disease zebra fish model assessed as total distance moved at 0.0049 ug/ml treated for 24 hrs and measured after 24 hrs under alternating light dark stimuli conditions (reference value: 543 cm); type: functional; details: dose 0.0049 µg/ml; time 48 hrs
Danio rerio [19] = organism: Danio rerio; experiment: Antialzheimer activity against AlCl3-induced Alzheimer's disease zebra fish model assessed as total distance moved at 0.078 ug/ml treated for 24 hrs and measured after 24 hrs under alternating light dark stimuli conditions (reference value: 543 cm); type: functional; details: dose 0.078 µg/ml; time 48 hrs
Danio rerio [20] = organism: Danio rerio; experiment: Antialzheimer activity against AlCl3-induced Alzheimer's disease zebra fish model assessed as distance velocity at 0.0049 ug/ml treated for 24 hrs and measured after 24 hrs under light environment (reference value: 7.7 cm/min); type: functional; details: dose 0.0049 µg/ml; time 48 hrs
Danio rerio [21] = organism: Danio rerio; experiment: Neuroprotective activity against AlCl3-induced Alzheimer's disease zebra fish model assessed as distance velocity at 0.078 ug/ml treated for 24 hrs and measured after 24 hrs under light environment (reference value: 7.7 cm/min); type: functional; details: dose 0.078 µg/ml; time 48 hrs
Danio rerio [22] = organism: Danio rerio; experiment: Neuroprotective activity against AlCl3-induced Alzheimer's disease zebra fish model assessed as distance velocity at 0.0049 ug/ml treated for 24 hrs and measured after 24 hrs under alternating light dark stimuli conditions (reference value: 9 cm/min); type: functional; details: dose 0.0049 µg/ml; time 48 hrs
Danio rerio [23] = organism: Danio rerio; experiment: Neuroprotective activity against AlCl3-induced Alzheimer's disease zebra fish model assessed as distance velocity at 0.078 ug/ml treated for 24 hrs and measured after 24 hrs under alternating light dark stimuli conditions (reference value: 9 cm/min); type: functional; details: dose 0.078 µg/ml; time 48 hrs

T2 sequence (O42275 whole entry): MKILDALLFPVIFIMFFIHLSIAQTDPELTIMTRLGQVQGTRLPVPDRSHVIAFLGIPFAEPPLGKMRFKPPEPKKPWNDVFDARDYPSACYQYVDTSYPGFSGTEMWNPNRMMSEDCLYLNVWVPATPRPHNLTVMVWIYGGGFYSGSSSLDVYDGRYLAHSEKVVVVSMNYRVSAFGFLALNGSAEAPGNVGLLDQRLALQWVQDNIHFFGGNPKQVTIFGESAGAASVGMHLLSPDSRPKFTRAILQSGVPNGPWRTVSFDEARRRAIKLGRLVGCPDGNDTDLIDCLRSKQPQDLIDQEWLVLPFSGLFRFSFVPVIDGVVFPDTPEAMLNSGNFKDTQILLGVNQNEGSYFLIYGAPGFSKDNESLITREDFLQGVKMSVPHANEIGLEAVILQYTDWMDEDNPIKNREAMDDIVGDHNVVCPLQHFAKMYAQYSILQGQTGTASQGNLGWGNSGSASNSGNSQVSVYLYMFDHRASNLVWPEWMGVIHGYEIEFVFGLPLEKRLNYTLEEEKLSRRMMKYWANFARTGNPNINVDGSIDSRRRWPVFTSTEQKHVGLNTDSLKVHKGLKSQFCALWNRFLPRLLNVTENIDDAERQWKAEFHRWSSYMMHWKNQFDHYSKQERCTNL
T3 sequence (P81908 whole entry): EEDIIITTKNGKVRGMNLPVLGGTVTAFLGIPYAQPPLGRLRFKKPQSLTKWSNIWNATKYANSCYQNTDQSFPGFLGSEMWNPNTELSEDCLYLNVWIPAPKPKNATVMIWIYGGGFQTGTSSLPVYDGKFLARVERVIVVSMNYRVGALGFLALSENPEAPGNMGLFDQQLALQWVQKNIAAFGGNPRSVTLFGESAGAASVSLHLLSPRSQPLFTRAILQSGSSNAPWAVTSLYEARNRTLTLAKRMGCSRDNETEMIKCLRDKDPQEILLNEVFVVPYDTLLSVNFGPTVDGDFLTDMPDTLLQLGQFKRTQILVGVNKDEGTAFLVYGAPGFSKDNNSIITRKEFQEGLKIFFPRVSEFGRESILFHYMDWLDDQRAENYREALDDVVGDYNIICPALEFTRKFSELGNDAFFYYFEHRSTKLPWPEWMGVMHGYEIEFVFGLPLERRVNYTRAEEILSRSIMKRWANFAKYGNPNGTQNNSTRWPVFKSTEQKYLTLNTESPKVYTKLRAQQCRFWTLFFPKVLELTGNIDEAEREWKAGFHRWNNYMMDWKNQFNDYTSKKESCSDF
Cholinesterase (Equus caballus), sequence (P81908 whole entry): as above

CCN(C)C(=O)Oc1ccccc1C(=O)/C=C/c1ccc(F)cc1
IC50 [1]: 38.2 µM
Activity (BV-2): Non-Toxic
viability at 20 µM (PC-12): 79.7%
Activity [2]: inactive
Activity [3]: inactive
Activity [4]: inactive
IC50 (Acetylcholinesterase [5]): 5.3 µM
Activity [6]: 51.7%
Papp at 18 h, 100 ug/ml [7]: 16.8 ×10⁻⁶ cm/s
Drug metabolism (Cholinesterase [8]): 1.51 mmol/L
Drug metabolism (Acetylcholinesterase [9]): 5.56 mmol/L
Drug metabolism (Acetylcholinesterase [10]): 24.87 mmol/L
Drug metabolism (Cholinesterase [11]): 2.52 mmol/L
Km (Acetylcholinesterase [12]): 85.3 µM
K (Acetylcholinesterase [13]): 5.2 M⁻¹ s⁻¹
K (Cholinesterase [14]): 4.05 M⁻¹ s⁻¹
remaining at 8 h, 1 mg/ml [15]: 104%
Activity [16]: Non-Toxic
Activity (Danio rerio [17]): 344 cm
Activity (Danio rerio [18]): 764 cm
Activity (Danio rerio [19]): 763 cm
Activity (Danio rerio [20]): 12.4 cm/min
Activity (Danio rerio [21]): 7.5 cm/min
Activity (Danio rerio [22]): 12.7 cm/min
Activity (Danio rerio [23]): 12.7 cm/min

— ChEMBL document CHEMBL5346920, “Development of the "hidden" multi-target-directed ligands by AChE/BuChE for the treatment of Alzheimer's disease” (Eur J Med Chem, 2023)
